Test results from PMC5925572, “Protoplast-Esculin Assay as a New Method to Assay Plant Sucrose Transporters: Characterization of AtSUC6 and AtSUC7 Sucrose Uptake Activity in Arabidopsis Col-0 Ecotype” (Frontiers in Plant Science, 2018).

Experiments:
AtSUC6Col-0 [1] = biological target: T1, AtSUC6Col-0 (Arabidopsis thaliana, UniProt Q6A329); experiment: competition of […]-sucrose uptake in yeast; assay type: cell-based; settings: 10-fold excess, pH 5.5, weak, value in figure only
T1 construct: gene SUC6; full-length CDS from silique cDNA; untagged in yeast CSY4000 (strain TRY1039); GFP fusion in protoplasts
T1 sequence (Q6A329 1-492): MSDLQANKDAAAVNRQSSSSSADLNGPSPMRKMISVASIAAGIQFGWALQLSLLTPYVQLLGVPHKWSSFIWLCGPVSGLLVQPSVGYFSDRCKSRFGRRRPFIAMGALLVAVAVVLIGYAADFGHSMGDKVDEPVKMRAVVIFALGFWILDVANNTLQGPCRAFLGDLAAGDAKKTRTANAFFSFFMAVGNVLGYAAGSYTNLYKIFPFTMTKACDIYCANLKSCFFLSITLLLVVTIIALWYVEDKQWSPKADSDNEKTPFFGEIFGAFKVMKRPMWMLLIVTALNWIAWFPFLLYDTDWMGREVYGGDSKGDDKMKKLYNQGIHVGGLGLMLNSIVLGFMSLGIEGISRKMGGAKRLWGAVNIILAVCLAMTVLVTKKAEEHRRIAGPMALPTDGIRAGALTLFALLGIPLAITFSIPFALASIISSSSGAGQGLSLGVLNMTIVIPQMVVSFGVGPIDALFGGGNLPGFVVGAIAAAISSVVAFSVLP

AtSUC6Col-0 [2] = biological target: T1, AtSUC6Col-0; experiment: competition of […]-sucrose uptake in yeast; assay type: cell-based; settings: 100 μM 14C-sucrose, maltose in 10-fold excess (1 mM), pH 5.5
AtSUC6Col-0 [3] = biological target: T1, AtSUC6Col-0; experiment: competition of […]-sucrose uptake in yeast; esculin uptake into protoplasts; assay type: cell-based; settings: pH 5.5; competition with 100 μM 14C-sucrose; value in figure only
AtSUC9 = biological target: T2, AtSUC9 (Arabidopsis thaliana, UniProt Q9FG00); experiment: esculin fluorescence uptake into GFP-fusion expressing mesophyll protoplasts; assay type: cell-based; settings: 1 mM esculin, W5 buffer pH 5.6
T2 construct: gene SUC9; full-length CDS, GFP-AtSUC9 fusion, in Arabidopsis mesophyll protoplasts
T2 sequence (Q9FG00 1-491): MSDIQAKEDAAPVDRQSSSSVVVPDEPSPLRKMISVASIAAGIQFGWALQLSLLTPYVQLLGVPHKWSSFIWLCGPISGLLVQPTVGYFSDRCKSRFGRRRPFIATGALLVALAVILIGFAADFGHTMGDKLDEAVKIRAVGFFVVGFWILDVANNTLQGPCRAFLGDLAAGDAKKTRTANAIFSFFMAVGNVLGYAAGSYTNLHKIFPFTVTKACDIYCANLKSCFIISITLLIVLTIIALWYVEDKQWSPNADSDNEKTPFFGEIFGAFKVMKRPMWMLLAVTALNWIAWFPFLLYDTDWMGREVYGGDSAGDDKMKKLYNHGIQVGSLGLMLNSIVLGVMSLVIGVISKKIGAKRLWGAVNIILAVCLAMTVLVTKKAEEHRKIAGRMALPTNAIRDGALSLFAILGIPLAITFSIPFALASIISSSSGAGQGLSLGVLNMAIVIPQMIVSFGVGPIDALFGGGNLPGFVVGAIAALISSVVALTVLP

AtSUC3 = biological target: T3, AtSUC3 (Arabidopsis thaliana, UniProt O80605); experiment: as above; assay type: cell-based; settings: 1 mM esculin, W5 buffer pH 5.6
T3 construct: gene SUC3; full-length CDS, GFP-AtSUC3 fusion, in Arabidopsis mesophyll protoplasts
T3 sequence (O80605 1-594): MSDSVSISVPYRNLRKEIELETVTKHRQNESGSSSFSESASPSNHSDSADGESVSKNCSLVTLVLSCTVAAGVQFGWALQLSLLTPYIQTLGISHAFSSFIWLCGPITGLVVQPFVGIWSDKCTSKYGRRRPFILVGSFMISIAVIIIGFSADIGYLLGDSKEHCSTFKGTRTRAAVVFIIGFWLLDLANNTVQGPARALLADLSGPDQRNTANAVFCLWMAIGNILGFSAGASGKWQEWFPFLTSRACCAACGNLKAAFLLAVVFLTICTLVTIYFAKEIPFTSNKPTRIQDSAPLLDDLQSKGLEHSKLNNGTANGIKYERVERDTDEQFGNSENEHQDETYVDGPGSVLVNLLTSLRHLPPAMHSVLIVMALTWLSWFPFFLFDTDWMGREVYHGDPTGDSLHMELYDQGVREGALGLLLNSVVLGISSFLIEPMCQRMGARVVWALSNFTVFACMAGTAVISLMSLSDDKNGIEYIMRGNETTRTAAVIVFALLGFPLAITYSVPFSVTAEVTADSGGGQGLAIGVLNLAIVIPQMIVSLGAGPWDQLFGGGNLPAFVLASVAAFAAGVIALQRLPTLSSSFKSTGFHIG

AtSUC2 = biological target: T4, AtSUC2 (Arabidopsis thaliana, UniProt Q39231); experiment: as above; assay type: cell-based; settings: 1 mM esculin, W5 buffer pH 5.6
T4 construct: gene SUC2; full-length CDS, C-terminal GFP fusion (AtSUC2-GFP), in Arabidopsis mesophyll protoplasts; Col-0 named for the mutant construct
T4 sequence (Q39231 1-512): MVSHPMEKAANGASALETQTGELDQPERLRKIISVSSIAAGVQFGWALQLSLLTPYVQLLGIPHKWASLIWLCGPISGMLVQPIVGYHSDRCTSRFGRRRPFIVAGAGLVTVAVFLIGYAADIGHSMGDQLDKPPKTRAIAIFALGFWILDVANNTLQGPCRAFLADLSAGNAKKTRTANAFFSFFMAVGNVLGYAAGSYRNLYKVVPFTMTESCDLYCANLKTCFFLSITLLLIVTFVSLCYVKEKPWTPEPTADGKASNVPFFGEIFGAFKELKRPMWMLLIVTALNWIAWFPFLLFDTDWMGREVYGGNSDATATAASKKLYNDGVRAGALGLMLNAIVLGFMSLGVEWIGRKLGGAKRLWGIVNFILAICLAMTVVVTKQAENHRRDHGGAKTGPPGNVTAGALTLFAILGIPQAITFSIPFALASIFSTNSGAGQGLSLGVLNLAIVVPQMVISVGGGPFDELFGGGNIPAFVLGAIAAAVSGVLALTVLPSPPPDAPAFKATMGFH

AtSUC8 = biological target: T5, AtSUC8 (Arabidopsis thaliana, UniProt Q9ZVK6); experiment: as above; assay type: cell-based; settings: 1 mM esculin, W5 buffer pH 5.6
T5 construct: gene SUC8; full-length CDS, GFP fusion, in Arabidopsis mesophyll protoplasts
T5 sequence (Q9ZVK6 1-492): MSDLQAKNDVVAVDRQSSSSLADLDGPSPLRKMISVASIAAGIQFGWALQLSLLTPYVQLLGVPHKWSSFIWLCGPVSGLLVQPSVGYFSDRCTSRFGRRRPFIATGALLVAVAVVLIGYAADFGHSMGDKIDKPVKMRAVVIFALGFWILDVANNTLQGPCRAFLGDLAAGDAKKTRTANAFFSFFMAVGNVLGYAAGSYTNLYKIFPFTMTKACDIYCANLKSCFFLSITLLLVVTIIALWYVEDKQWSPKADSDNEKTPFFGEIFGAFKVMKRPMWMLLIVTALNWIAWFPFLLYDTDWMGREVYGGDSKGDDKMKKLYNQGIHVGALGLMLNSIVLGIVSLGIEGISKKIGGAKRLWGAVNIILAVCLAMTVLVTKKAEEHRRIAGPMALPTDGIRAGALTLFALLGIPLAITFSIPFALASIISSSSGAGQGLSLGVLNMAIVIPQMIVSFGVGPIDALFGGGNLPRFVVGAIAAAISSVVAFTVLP

AtSUC1 = biological target: T6, AtSUC1 (Arabidopsis thaliana, UniProt Q39232); experiment: as above; assay type: cell-based; settings: 1 mM esculin, W5 buffer pH 5.6
T6 construct: gene SUC1; full-length CDS, GFP fusion, in Arabidopsis mesophyll protoplasts
T6 sequence (Q39232 1-513): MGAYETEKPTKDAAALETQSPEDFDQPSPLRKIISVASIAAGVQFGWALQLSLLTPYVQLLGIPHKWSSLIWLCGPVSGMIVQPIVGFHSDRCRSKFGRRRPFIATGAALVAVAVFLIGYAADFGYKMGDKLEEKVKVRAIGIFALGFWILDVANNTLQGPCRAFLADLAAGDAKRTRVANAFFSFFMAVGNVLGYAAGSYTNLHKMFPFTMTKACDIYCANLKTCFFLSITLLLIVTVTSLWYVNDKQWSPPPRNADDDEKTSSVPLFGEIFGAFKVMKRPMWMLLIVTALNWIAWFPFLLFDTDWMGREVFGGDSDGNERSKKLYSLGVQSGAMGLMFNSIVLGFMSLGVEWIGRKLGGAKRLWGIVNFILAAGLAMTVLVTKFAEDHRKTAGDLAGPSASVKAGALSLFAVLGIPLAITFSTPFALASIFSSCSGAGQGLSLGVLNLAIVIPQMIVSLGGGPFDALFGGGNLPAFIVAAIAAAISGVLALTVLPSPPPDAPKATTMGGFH

AtSUC5 = biological target: T7, AtSUC5 (Arabidopsis thaliana, UniProt Q9C8X2); experiment: as above; assay type: cell-based; settings: 1 mM esculin, W5 buffer pH 5.6
T7 construct: gene SUC5; full-length CDS, GFP fusion, in Arabidopsis mesophyll protoplasts; Col-0 named for the mutant construct
T7 sequence (Q9C8X2 1-512): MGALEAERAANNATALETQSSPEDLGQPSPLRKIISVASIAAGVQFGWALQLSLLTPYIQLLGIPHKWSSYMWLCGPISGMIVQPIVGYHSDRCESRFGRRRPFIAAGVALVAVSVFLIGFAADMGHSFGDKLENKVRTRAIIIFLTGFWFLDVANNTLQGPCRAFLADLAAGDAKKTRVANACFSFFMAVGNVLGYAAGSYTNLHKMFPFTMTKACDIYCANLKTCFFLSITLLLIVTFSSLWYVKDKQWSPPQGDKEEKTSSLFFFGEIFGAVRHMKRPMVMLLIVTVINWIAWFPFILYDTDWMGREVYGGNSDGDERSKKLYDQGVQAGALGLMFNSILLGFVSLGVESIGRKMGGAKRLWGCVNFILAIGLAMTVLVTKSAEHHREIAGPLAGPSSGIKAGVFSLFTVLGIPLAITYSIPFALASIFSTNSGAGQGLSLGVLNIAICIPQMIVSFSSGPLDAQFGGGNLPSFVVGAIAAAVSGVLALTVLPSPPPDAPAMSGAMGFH

[4] = substrate: OC[C@H]1O[C@@](CO)(O[C@H]2O[C@H](CO)[C@@H](O)[C@H](O)[C@H]2O)[C@@H](O)[C@@H]1O; experiment: cells, lysate or membranes; assay type: cell-based, Arabidopsis thaliana; settings: external pH 5.5, H+ symport, labelled compound

Question: `OC[C@H]1O[C@H](OC[C@H]2O[C@H](O[C@]3(CO)O[C@H](CO)[C@@H](O)[C@@H]3O)[C@H](O)[C@@H](O)[C@@H]2O)[C@H](O)[C@@H](O)[C@H]1O` [raffinose] was tested. Which “competition of 14C-sucrose uptake in yeast” value (AtSUC6Col-0 [1]) did it give?
Answer: The value was “The trisaccharide raffinose slightly interfered with sucrose uptake”.

Question: `OC[C@H]1O[C@H](O[C@H]2[C@H](O)[C@@H](O)C(O)O[C@@H]2CO)[C@H](O)[C@@H](O)[C@@H]1O` (stereo partly shown) [maltose] was tested. Which “% residual 14C-sucrose uptake in 10-fold excess” value (AtSUC6Col-0 [2]) did it give?
Answer: Its value is 32%.

Question: Which “competition of 14C-sucrose uptake in yeast; esculin uptake into protoplasts” value (AtSUC6Col-0 [3]) does the source give for `O=c1ccc2cc(O[C@@H]3O[C@H](CO)[C@@H](O)[C@H](O)[C@H]3O)c(O)cc2o1` [esculin] here?
Answer: Its value is “addition of esculin greatly interfered with sucrose uptake (Figure 4E)”.

Question: What about the “esculin fluorescence uptake into GFP-fusion expressing mesophyll protoplasts” value (AtSUC9) of the same molecule?
Answer: Its value is “AtSUC1, AtSUC5, AtSUC6Col-0, AtSUC8, or AtSUC9 enabled the cells to accumulate esculin”.

Question: What about the “esculin fluorescence uptake into GFP-fusion expressing mesophyll protoplasts” value (AtSUC3) of the same molecule?
Answer: Its value is “Protoplasts with GFP-AtSUC3 were also able to accumulate esculin”.

Question: And the “esculin fluorescence uptake into GFP-fusion expressing mesophyll protoplasts” value (AtSUC2)?
Answer: Its value is “all protoplasts labeled by AtSUC2-GFP had taken up esculin”.

Question: And the “esculin fluorescence uptake into GFP-fusion expressing mesophyll protoplasts” value (AtSUC8)?
Answer: The value was “AtSUC1, AtSUC5, AtSUC6Col-0, AtSUC8, or AtSUC9 enabled the cells to accumulate esculin”.

Question: And the “esculin fluorescence uptake into GFP-fusion expressing mesophyll protoplasts” value (AtSUC1)?
Answer: Its value is “AtSUC1, AtSUC5, AtSUC6Col-0, AtSUC8, or AtSUC9 enabled the cells to accumulate esculin”.

Question: And the “esculin fluorescence uptake into GFP-fusion expressing mesophyll protoplasts” value (AtSUC5)?
Answer: Its value is “AtSUC1, AtSUC5, AtSUC6Col-0, AtSUC8, or AtSUC9 enabled the cells to accumulate esculin”.

B1: AtSUC6Col-0 (Arabidopsis thaliana) (protein)
chain: T1 sequence (Q6A329 1-492)
notes: full-length CDS from silique cDNA; untagged in yeast CSY4000 (strain TRY1039); GFP fusion in protoplasts
Question: Which Km [4] does the source give for B1 here?
Answer: Its Km is 81.2 ± 2.7 µM.
